# Laboratory results reported in ChEMBL document CHEMBL3714762, “Agents and methods for treating ischemic and other diseases” (2012).
# Calls of active or inactive are those of the source. No cut-off for these calls is given here.
# Assays:
# [1] = Selectivity index, ratio of antiproliferative activity against human MCF10A cells to antiproliferative activity against human Y79 cells; parameters: species or system MCF-10A
# [2] = Selectivity index, ratio of antiproliferative activity against human MCF10A cells to antiproliferative activity against human DMS53 cells; parameters: species or system MCF-10A
# [3] = Selectivity index, ratio of antiproliferative activity against human WI38 cells to antiproliferative activity against human DMS53 cells; parameters: species or system DMS-53
# Y79 = assay: Antiproliferative activity against human Y79 cells assessed as inhibition of cell proliferation at 10 uM incubated for 72 hrs by Cell-titer-Glo cell viability assay; assay type: functional; details: Y79, 72 h
# [4] = Selectivity index, ratio of antiproliferative activity against human WI38 cells to antiproliferative activity against human MCF7 cells
# MCF7 = assay: Antiproliferative activity against human MCF7 cells assessed as inhibition of cell proliferation at 10 uM incubated for 72 hrs by Cell-titer-Glo cell viability assay; assay type: functional; details: MCF7, 72 h
# [5] = Antiproliferative activity against human MCF10A cells assessed as inhibition of cell proliferation at 10 uM incubated for 72 hrs by Cell-titer-Glo cell viability assay; assay type: cell-based, MCF-10A
# [6] = Antiproliferative activity against human WERI cells assessed as inhibition of cell proliferation by measuring normalized ratio of propidium iodide uptake at 10 uM by propidium iodide uptake based fluoroskan microplate reader analysis; assay type: functional
# [7] = Selectivity index, ratio of antiproliferative activity against mouse NIH/3T3 cells to antiproliferative activity against human Y79 cells
# [8] = Antiproliferative activity against human WERI cells assessed as inhibition of cell proliferation by measuring normalized ratio of propidium iodide uptake at 5 uM by propidium iodide uptake based fluoroskan microplate reader analysis; assay type: functional
# [9] = Antiproliferative activity against mouse NIH/3T3 cells assessed as inhibition of cell proliferation at 10 uM incubated for 72 hrs by Cell-titer-Glo cell viability assay; assay type: cell-based, NIH3T3
# [10] = target: Transient receptor potential cation channel subfamily M member 7 (Mus musculus, UniProt Q923J1); assay: Inhibition of N-terminal Flag-tagged mouse TRPM7 expressed in HEK293T cells assessed as reduction in whole cell currents by whole-cell patch clamp assay; assay type: cell-based, HEK-293T
# Chain of Transient receptor potential cation channel subfamily M member 7 (Q923J1 whole entry): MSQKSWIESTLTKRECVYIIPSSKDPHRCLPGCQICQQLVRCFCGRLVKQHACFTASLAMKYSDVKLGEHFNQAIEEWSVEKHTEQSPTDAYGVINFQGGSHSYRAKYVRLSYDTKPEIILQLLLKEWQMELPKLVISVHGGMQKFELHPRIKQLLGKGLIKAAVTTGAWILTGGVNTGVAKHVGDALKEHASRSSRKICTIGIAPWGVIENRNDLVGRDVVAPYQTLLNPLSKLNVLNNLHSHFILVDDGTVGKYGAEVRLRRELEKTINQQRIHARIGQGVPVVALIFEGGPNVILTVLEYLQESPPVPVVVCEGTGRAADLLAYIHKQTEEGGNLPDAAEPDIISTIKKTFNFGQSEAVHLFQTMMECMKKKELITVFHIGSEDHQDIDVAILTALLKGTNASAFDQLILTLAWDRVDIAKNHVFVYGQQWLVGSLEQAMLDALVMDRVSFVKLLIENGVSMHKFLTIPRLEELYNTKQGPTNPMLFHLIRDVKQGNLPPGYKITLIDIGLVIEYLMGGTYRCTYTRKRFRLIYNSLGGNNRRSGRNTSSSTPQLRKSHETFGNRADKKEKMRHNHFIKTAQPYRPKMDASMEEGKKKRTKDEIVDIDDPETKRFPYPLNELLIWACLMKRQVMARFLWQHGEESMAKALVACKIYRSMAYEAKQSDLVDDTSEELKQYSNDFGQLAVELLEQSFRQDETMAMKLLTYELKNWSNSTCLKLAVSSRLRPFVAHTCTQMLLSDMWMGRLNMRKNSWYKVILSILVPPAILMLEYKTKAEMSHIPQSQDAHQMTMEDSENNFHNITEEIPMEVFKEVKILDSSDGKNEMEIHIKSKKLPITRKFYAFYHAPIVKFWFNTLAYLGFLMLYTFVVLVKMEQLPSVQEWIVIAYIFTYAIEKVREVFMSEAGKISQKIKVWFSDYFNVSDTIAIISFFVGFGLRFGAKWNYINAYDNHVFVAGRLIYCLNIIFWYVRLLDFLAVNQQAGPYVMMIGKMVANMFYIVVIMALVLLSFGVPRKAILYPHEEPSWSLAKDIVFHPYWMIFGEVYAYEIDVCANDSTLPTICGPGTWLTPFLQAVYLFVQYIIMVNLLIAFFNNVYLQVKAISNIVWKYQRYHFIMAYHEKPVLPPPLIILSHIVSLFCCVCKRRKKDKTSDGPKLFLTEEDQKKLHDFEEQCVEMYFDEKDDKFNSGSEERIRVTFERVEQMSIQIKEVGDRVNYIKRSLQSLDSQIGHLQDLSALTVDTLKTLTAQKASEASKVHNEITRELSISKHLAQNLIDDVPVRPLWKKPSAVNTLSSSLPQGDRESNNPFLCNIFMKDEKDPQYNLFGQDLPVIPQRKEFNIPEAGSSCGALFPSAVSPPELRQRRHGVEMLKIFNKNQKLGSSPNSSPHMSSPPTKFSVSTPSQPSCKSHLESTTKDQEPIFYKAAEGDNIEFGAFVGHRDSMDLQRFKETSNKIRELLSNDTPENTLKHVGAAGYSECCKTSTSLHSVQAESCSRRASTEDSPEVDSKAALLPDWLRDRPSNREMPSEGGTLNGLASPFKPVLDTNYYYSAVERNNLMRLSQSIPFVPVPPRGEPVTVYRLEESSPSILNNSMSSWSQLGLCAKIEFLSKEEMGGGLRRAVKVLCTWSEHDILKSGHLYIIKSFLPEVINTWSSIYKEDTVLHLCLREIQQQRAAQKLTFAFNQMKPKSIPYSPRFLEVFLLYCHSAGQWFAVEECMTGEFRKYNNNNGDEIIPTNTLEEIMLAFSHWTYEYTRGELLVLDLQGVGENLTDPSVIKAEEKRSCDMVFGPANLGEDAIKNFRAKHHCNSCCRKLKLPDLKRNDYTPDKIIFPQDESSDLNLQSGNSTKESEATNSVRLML
# [11] = Selectivity index, ratio of antiproliferative activity against mouse NIH/3T3 cells to antiproliferative activity against human HeLa cells
# [12] = Selectivity index, ratio of antiproliferative activity against mouse NIH/3T3 cells to antiproliferative activity against human MCF7 cells
# [13] = Antiproliferative activity against human WI38 cells assessed as inhibition of cell proliferation at 10 uM incubated for 72 hrs by Cell-titer-Glo cell viability assay; assay type: cell-based, WI-38
# [14] = Selectivity index, ratio of antiproliferative activity against human WI38 cells to antiproliferative activity against mouse B16F10 cells; parameters: species or system B16-F10
# [15] = Selectivity index, ratio of antiproliferative activity against human MCF10A cells to antiproliferative activity against mouse B16F10 cells; parameters: species or system MCF-10A
# HeLa = assay: Antiproliferative activity against human HeLa cells assessed as inhibition of cell proliferation at 10 uM incubated for 72 hrs by Cell-titer-Glo cell viability assay; assay type: functional
# [16] = Selectivity index, ratio of antiproliferative activity against mouse NIH/3T3 cells to antiproliferative activity against human DMS53 cells; parameters: species or system DMS-53
# [17] = Selectivity index, ratio of antiproliferative activity against mouse NIH/3T3 cells to antiproliferative activity against mouse B16F10 cells; parameters: species or system B16-F10
# [18] = Selectivity index, ratio of antiproliferative activity against human WI38 cells to antiproliferative activity against human Y79 cells; parameters: species or system WI-38
# [19] = Antiproliferative activity against mouse B16F10 cells assessed as inhibition of cell proliferation at 10 uM incubated for 72 hrs by Cell-titer-Glo cell viability assay; assay type: functional; details: B16-F10, 72 h
# [20] = Antiproliferative activity against human WERI cells assessed as inhibition of cell proliferation at 10 uM by propidium iodide uptake based fluoroskan microplate reader analysis; assay type: functional
# [21] = Selectivity index, ratio of antiproliferative activity against human MCF10A cells to antiproliferative activity against human HeLa cells
# [22] = Selectivity index, ratio of antiproliferative activity against human MCF10A cells to antiproliferative activity against human MCF7 cells; parameters: species or system MCF-10A
# [23] = Selectivity index, ratio of antiproliferative activity against human WI38 cells to antiproliferative activity against human HeLa cells
# [24] = Antiproliferative activity against human WERI cells assessed as inhibition of cell proliferation at 5 uM by propidium iodide uptake based fluoroskan microplate reader analysis; assay type: functional
# [25] = Antiproliferative activity against human DMS53 cells assessed as inhibition of cell proliferation at 10 uM incubated for 72 hrs by Cell-titer-Glo cell viability assay; assay type: functional; details: DMS-53, 72 h
# [26] = Antiproliferative activity against human WERI cells assessed as inhibition of cell proliferation by propidium iodide uptake based fluoroskan microplate reader analysis; assay type: functional
# Rattus norvegicus [27] = species: Rattus norvegicus; assay: Neuroprotection in Sprague-Dawley rat model of fluid percussion injury assessed as activity parameters by rotarod performance test relative to untreated control; assay type: functional, organism-based
# Rattus norvegicus [28] = assay: Neuroprotection in Sprague-Dawley rat model of fluid percussion injury assessed as reduction in neuronal damage dosed 1 hr after injury by TTC staining based oscilloscopy; assay type: functional, organism-based
# Cerebral cortex neuron = assay: Neuroprotection in CD1 mouse primary cortical neuron assessed as reduction in stretch injury-induced cell death at 2 to 10 uM dosed 1 hr after injury by propidium iodide straining based; assay type: functional
# Rattus norvegicus [29] = assay: Neuroprotection in Sprague-Dawley rat model of fluid percussion injury assessed as improvement in learning and memory tasks by measuring latency to reach platform dosed 1 hr after lateral fluid percussion injury by Morris water maze test; assay type: functional, organism-based
# Rattus norvegicus [30] = species: Rattus norvegicus; assay: Neuroprotection in Sprague-Dawley rat model of fluid percussion injury assessed as increase in balance by measuring mean latency measured on first day post injury by rotarod performance test relative to untreated control; assay type: functional
# Rattus norvegicus [31] = assay: Neuroprotection in Sprague-Dawley rat model of fluid percussion injury assessed as reduction in neuronal brain damage dosed before injury at 2 to 10 uM by TTC staining based oscilloscopy; assay type: functional, organism-based
# Rattus norvegicus [32] = species: Rattus norvegicus; assay: Neuroprotection in Sprague-Dawley rat model of fluid percussion injury assessed as distance traveled by rotarod performance test relative to untreated control; assay type: functional, organism-based
SMILES,Selectivity Index [1],Selectivity Index [2],Selectivity Index [3],inhibition at 10 µM (Y79),Selectivity Index [4],inhibition at 10 µM (MCF7),"inhibition at 72 h, 10 µM [5]",Ratio [6],Selectivity Index [7],Ratio [8],"inhibition at 72 h, 10 µM [9]",Selectivity Index [11],Selectivity Index [12],"inhibition at 72 h, 10 µM [13]",Selectivity Index [14],Selectivity Index [15],inhibition at 10 µM (HeLa),Selectivity Index [16],Selectivity Index [17],Selectivity Index [18],also measured
COc1ccc2c(c1)CCN=C2c1sc2ccccc2c1Cl,20,20,20,> 40%,20,> 40%,> 40%,0.035,20,0.06,> 40%,20,20,> 40%,20,20,> 40%,20,20,20,IC50 [10]: 5 µM; inhibition at 10 µM [19]: > 40%; inhibition at 10 µM [20]: 42%; Selectivity Index [21]: 20; Selectivity Index [22]: 20; Selectivity Index [23]: 20; inhibition at 5 µM [24]: 18%; inhibition at 10 µM [25]: > 40%; IC50 [26]: 1.19 µM
COc1ccc(C(=O)c2sc3ccccc3c2Cl)cc1,20,20,20,> 40%,20,> 40%,> 40%,0.063,20,0.305,> 40%,20,20,> 40%,20,20,> 40%,20,20,20,inhibition at 10 µM [19]: > 40%; Selectivity Index [21]: 20; Selectivity Index [22]: 20; Selectivity Index [23]: 20; inhibition at 10 µM [25]: > 40%; IC50 [26]: 4 µM
Cc1c(Cc2ccc(Cl)c(Cl)c2)c(=O)oc2cc(O)ccc12,–,–,–,–,–,–,–,–,–,–,–,–,–,–,–,–,–,–,–,–,Activity (Rattus norvegicus [27]): Active; Activity (Rattus norvegicus [28]): Active; Activity (Cerebral cortex neuron): Active; Activity (Rattus norvegicus [29]): Active; fold change (FC) (Rattus norvegicus [30]): 2; Activity (Rattus norvegicus [31]): Active; Activity (Rattus norvegicus [32]): Active
